Measurements reported in US20230211052A1, “COMPOUNDED ACTIVE PHARMACEUTICAL AGENTS IN THERMOPLASTIC POLYMER COMPOSITIONS AND METHODS OF MANUFACTURE” (priority 2021, published 2023).
Where a name gives a salt, the structure may show the parent alone.

assay: Thermal stability assessment, oven then HPLC for degradants; assay type: physicochemical; conditions: oven at 210° C. for 10 mins, compared with unheated sample
Protocol: The antimicrobial agents were placed into an oven set at 210° C. for 10 mins (to mimic condition in which the antimicrobial agent would be exposed to heat during the compounding and extrusion processes). Another set of the same antimicrobial agents was not exposed to any heat. The unheated and heated samples were then examined through HPLC method for presence of degradants (extra peaks). Results of CHA and CHD are in FIGS. 8, 9, 10, and 11. […] Similar to CHD, ALX-D was also found stable at 210° C. for 10 mins and was found suitable for including in the device through compounding process.

| SMILES | thermal stability, presence of degradants (extra peaks) by HPLC |
| --- | --- |
| CC(=O)O.CC(=O)O.NC(=N\CCCCCC/N=C(N)/N=C(\N)Nc1ccc(Cl)cc1)/N=C(\N)Nc1ccc(Cl)cc1 [CHA, Chlorhexidine Diacetate] | several extra peaks from degradants |
| CCCCC(CC)CNC(=N)NC(=N)NCCCCCCNC(=N)NC(=N)NCC(CC)CCCC (stereo not drawn) [ALX-D, Alexidine Dihydrochloride] | stable |
| [H]/N=C(\N/C(=N/[H])NCCCCCCNC(=N)NC(=N)Nc1ccc(Cl)cc1)Nc1ccc(Cl)cc1 [CHD, Chlorhexidine Dihydrochloride] | absence of any extra peaks |
